Columns and labels:
[1] = tested on: T-cell acute lymphoblastic leukemia (CCRF-CEM) cells; assay: Inhibition of CXCL12-induced chemotaxis in lymphoblastic leukemia cells; assay type: cell-based; details: Homo sapiens, CXCL12 10 nM, 2.5 h at 37 °C, read-out: concentration required to inhibit chemotaxis by 50% (EC50)
Experimental: The response of cancer cells to compounds of Formula (I) was evaluated using the chemotaxis assay as set forth below.
T-cell acute lymphoblastic leukemia (CCRF-CEM) cells in Roswell Park Memorial Institute medium (RPMI) 1640 supplemented with 10% […] were incubated with 250 μL of a test compound. The assay was performed using Millicell Hanging Cell Culture Inserts (pore size 5 μm; 24-well plate; Millipore, Bedford, Mass., USA). After 10 minutes at 37° C., 250 μL of cells pre-incubated with a test compound were plated per well in the upper chambers of the inserts at a density of 2.5×10^5 cells/well. 300 μL/well medium containing CXCL12 (10 nM) and a test compound were plated in the lower chamber of the insert. After 2.5 h at 37° C., cells in both chambers of inserts were measured by flow cytometry (Guava Technologies, Hayward, Calif., USA).

human CXCR4 = target: T1, human CXCR4 (Homo sapiens, UniProt P61073); assay: Inhibition of 125I-CXCL12 radioligand binding, membranes of human CXCR4-transfected HEK293 cells; details: 0.16 nM 125I-CXCL12, 60 min at 30 °C, read-out: concentration required to inhibit binding of 125I-CXCL12 to CXCR4 by 50% (IC50)
T1 construct: expressed in transfected cells; host or cells: HEK293 cells (membranes)
T1 sequence (P61073 whole entry): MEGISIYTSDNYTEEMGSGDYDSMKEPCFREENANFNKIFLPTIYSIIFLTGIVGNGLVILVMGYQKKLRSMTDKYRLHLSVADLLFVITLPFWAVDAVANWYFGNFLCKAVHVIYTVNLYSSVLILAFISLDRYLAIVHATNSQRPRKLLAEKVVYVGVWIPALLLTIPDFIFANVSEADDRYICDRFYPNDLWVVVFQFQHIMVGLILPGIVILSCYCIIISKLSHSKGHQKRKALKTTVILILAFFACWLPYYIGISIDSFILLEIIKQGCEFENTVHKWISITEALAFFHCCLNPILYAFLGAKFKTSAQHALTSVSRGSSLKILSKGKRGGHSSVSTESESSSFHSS
Experimental: Binding competition between the compounds of Formula (I) and human CXCL12 was assessed using a radioligand binding assay as described below.
Membranes (2-4 μg) prepared from human CXCR4-transfected HEK293 cells in 40 μL of assay buffer (50 mM HEPES-NaOH, pH 7.4, 100 mM NaCl, 5 mM MgCl2, 1 mM CaCl2, 0.5% bovine serum albumin) were incubated with 20 μL of radio-labeled ^125I-CXCL12 (0.16 nM) and 20 μL of a test compound in an assay plate (Costar Corning, Cambridge, Mass.). After 60 minutes at 30° C., the incubation was terminated by transferring the resulting reaction mixture to a 96-well GF/B filter plate (Millipore Corp., Billerica, Mass.) and filtered via a manifold. The plate was washed with 100 μL of ice-cold wash buffer (50 mM HEPES-NaOH, pH 7.4, 100 mM NaCl) four times. The radioactivity bound to the filter was measured by Topcount (PerkinElmer Inc., Waltham, Mass.).

[2] = tested on: acute Kidney Injury (AKI) model; assay: Ischemia-reperfusion acute kidney injury (AKI) model in rats; assay type: in vivo, male Sprague-Dawley rats; details: 6 mg/Kg subcutaneous 40 min before AKI, blood 24 h after induction of AKI
Experimental: The efficacy of five compounds of Formula (I) in treating Ischemia-Reperfusion injury was assessed using both an acute kidney injury model, an ischemic stroke model, and a limb ischemia model. These five compounds are Compounds 13, 35, 40, 45, and 46. In an acute Kidney Injury (AKI) model, each of the five compounds was dissolved in saline to form a solution. The solution was administered to male Sprague-Dawley rats (National Laboratory Animal Center, Taipei, Taiwan) subcutaneously at a dosage of 6 mg/Kg. 40 minutes after the subcutaneous injection, AKI was induced in the rats by clamping their bilateral renal vein and artery for one hour followed by releasing the vessel clips to allow 24-h reperfusion. Whole blood was collected at 24-h after induction of AKI. Blood urea nitrogen (BUN) and serum creatinine (Scr), two markers that increase upon kidney injury, were measured using a FUJI DRI-CHEM 3500s analyzer (Fujifilm, Tokyo, Japan). Non-AKI rats and AKI rats treated with saline were used as controls.

Row | SMILES | EC50 [1] | IC50 (human CXCR4) | BUN level relative to that induced in saline-treated AKI rats [2] | Scr (serum creatinine) level relative to that induced in saline-treated AKI rats [2]
1 | N[C@@H](CCC(=O)N1CCC(Nc2nc(NCc3nnc(CCCNCCCNC4CCCCC4)[nH]3)nc3ccccc23)CC1)C(=O)O [Compound 38] | < 0.05 µM | 0.05 to 0.1 µM |  | 
2 | N[C@@H](CCC(=O)N1CCC(Nc2nc(NCc3nc(CCCNCCCNC4CCCCC4)cs3)nc3ccccc23)CC1)C(=O)O [Compound 31] | < 0.05 µM | 0.05 to 0.1 µM |  | 
3 | Cc1cc(NC2CCN(C(=O)CCNCC(=O)O)CC2)nc(NCc2nnn(CCCNCCCNC3CCCCC3)n2)n1 [Compound 46] | 0.05 to 0.15 µM | 0.05 to 0.1 µM | 22% | 22%
4 | Cc1cc(NC2CCNCC2)nc(NCc2nnc(CCCNCCCNC3CCCCC3)[nH]2)n1 [Compound 24] | < 0.05 µM | 0.05 to 0.1 µM |  | 
5 | N[C@@H](CCC(=O)N1CCC(Nc2nc(NCc3nc(CCCNCCCNC4CCCCC4)co3)nc3ccccc23)CC1)C(=O)O [Compound 32] | < 0.05 µM | 0.05 to 0.1 µM |  | 
6 | Cc1cc(NC2CCNCC2)nc(NCc2coc(CCCNCCCNC3CCCCC3)n2)n1 [Compound 16] | < 0.05 µM | < 0.05 µM |  | 
7 | N[C@@H](CCC(=O)N1CCC(Nc2nc(NCc3nnn(CCCNCCCNC4CCCCC4)n3)nc3ccccc23)CC1)C(=O)O [Compound 37] | < 0.05 µM | 0.05 to 0.1 µM |  | 
8 | Cc1cc(NC2CCNCC2)nc(NCc2cc(CCCNCCCNC3CCCCC3)on2)n1 [Compound 15] | < 0.05 µM | < 0.05 µM |  | 
9 | c1ccc2c(NC3CCNCC3)nc(NCc3cc(CCCNCCCNC4CCCCC4)on3)nc2c1 [Compound 1] | < 0.05 µM | < 0.05 µM |  | 
10 | Cc1cc(NC2CCNCC2)nc(NCc2nnc(CCCNCCCNC3CCCCC3)o2)n1 [Compound 20] | < 0.05 µM | 0.05 to 0.1 µM |  | 
11 | c1ccc2c(NC3CCNCC3)nc(NCc3coc(CCCNCCCNC4CCCCC4)n3)nc2c1 [Compound 2] | < 0.05 µM | < 0.05 µM |  | 
12 | c1ccc2c(NC3CCNCC3)nc(NCCc3cn(CCCCNCCCNC4CCCCC4)cn3)nc2c1 [Compound 8] | < 0.05 µM | 0.05 to 0.1 µM |  | 
13 | Cc1cc(NC2CCNCC2)nc(NCc2nnc(CCCNCCCNC3CCCCC3)s2)n1 [Compound 21] | < 0.05 µM | < 0.05 µM |  | 
14 | c1ccc2c(NC3CCNCC3)nc(NCc3nnc(CCCNCCCNC4CCCCC4)o3)nc2c1 [Compound 6] | < 0.05 µM | < 0.05 µM |  | 
15 | c1ccc2c(NC3CCNCC3)nc(NCc3nnnn3CCCNCCCNC3CCCCC3)nc2c1 [Compound 14] | < 0.05 µM | 0.05 to 0.1 µM |  | 
16 | Cc1cc(NC2CCNCC2)nc(NCc2nnn(CCCNCCCNC3CCCCC3)n2)n1 [Compound 23] | < 0.05 µM | < 0.05 µM |  | 
17 | N[C@@H](CCC(=O)NCCN1CCC(Nc2nc(NCc3cc(CCCNCCCNC4CCCCC4)on3)nc3ccccc23)CC1)C(=O)NCCP(=O)(O)O [Compound 47] | < 0.05 µM | 0.05 to 0.1 µM |  | 
18 | Cc1cc(NC2CCNCC2)nc(NCc2nc(CCCNCCCNC3CCCCC3)cs2)n1 [Compound 17] | < 0.05 µM | < 0.05 µM |  | 
19 | c1ccc2c(NC3CCNCC3)nc(NCc3nc(CCCNCCCNC4CCCCC4)cs3)nc2c1 [Compound 3] | < 0.05 µM | < 0.05 µM |  | 
20 | N[C@@H](CCC(=O)N1CCC(Nc2nc(NCc3coc(CCCNCCCNC4CCCCC4)n3)nc3ccccc23)CC1)C(=O)O [Compound 30] | < 0.05 µM | < 0.05 µM |  | 
21 | O=C(O)CNCCC(=O)N1CCC(Nc2nc(NCc3nnn(CCCNCCCNC4CCCCC4)n3)nc3ccccc23)CC1 [Compound 61] | < 0.05 µM | 0.05 to 0.1 µM |  | 
22 | CCc1cc(NC2CCNCC2)nc(NCc2nnn(CCCNCCCNC3CCCCC3)n2)n1 [Compound 26] | < 0.05 µM | 0.05 to 0.1 µM |  | 
23 | O=C(O)CNCCCC(=O)N1CCC(Nc2nc(NCc3nnn(CCCNCCCNC4CCCCC4)n3)nc3ccccc23)CC1 [Compound 59] | < 0.05 µM | < 0.05 µM |  | 
24 | N[C@@H](CCC(=O)N1CCC(Nc2nc(NCc3cc(CCCNCCCNC4CCCCC4)on3)nc3ccccc23)CC1)C(=O)O [Compound 29] | < 0.05 µM | < 0.05 µM |  | 

Row | SMILES | EC50 [1] | IC50 (human CXCR4) | BUN level relative to that induced in saline-treated AKI rats [2] | Scr (serum creatinine) level relative to that induced in saline-treated AKI rats [2]
25 | Cc1cc(NC2CCNCC2)nc(NCc2nc(CCCNCCCNC3CCCCC3)co2)n1 [Compound 18] | < 0.05 µM | < 0.05 µM |  | 
26 | N[C@@H](CCC(=O)N1CCC(Nc2nc(NCc3nc(CNCCCNC4CCCCC4)c[nH]3)nc3ccccc23)CC1)C(=O)O [Compound 79] |  | 0.1 to 1 µM |  | 
27 | c1ccc2c(NC3CCNCC3)nc(NCc3nnc(CCCNCCCNC4CCCCC4)s3)nc2c1 [Compound 7] | < 0.05 µM | < 0.05 µM |  | 
28 | CCc1cc(NC2CCN(C(=O)CCCNCC(=O)O)CC2)nc(NCc2nnn(CCCNCCCNC3CCCCC3)n2)n1 [Compound 64] |  | 0.1 to 1 µM |  | 
29 | c1ccc2c(NC3CCNCC3)nc(NCc3nnn(CCCNCCCNC4CCCCC4)n3)nc2c1 [Compound 13] | < 0.05 µM | < 0.05 µM | 25% | 56%
30 | N[C@@H](CCC(=O)N1CCC(Nc2nc(NCCc3cn(CCCCNCCCNC4CCCCC4)cn3)nc3ccccc23)CC1)C(=O)OCc1ccccc1 [Compound 60] |  | 0.1 to 1 µM |  | 
31 | CCc1cc(NC2CCN(C(=O)CCNCC(=O)O)CC2)nc(NCc2nnc(CCCNCCCNC3CCCCC3)s2)n1 [Compound 70] |  | 0.1 to 1 µM |  | 
32 | c1ccc2c(N3CCNCC3)nc(NCc3nnn(CCCNCCCNC4CCCCC4)n3)nc2c1 [Compound 12] |  | < 0.05 µM |  | 
33 | Cc1cc(NC2CCNCC2)nc(NCCc2cn(CCCCNCCCNC3CCCCC3)cn2)n1 [Compound 22] | < 0.05 µM | 0.05 to 0.1 µM |  | 
34 | Cc1cc(NC2CCNCC2)nc(NCc2ncn(CCCNCCCNC3CCCCC3)n2)n1 [Compound 71] |  | 0.1 to 1 µM |  | 
35 | Cc1cc(NC2CCNCC2)nc(NCc2nc(CNCCCNC3CCCCC3)c[nH]2)n1 [Compound 73] |  | 0.05 to 0.1 µM |  | 
36 | N[C@@H](CCC(=O)NCCN1CCC(Nc2nc(NCc3nnnn3CCCNCCCNC3CCCCC3)nc3ccccc23)CC1)C(=O)NCCP(=O)(O)O [Compound 52] |  | 0.1 to 1 µM |  | 
37 | CC(C)CC(NCCC(=O)N1CCC(Nc2nc(NCc3nnn(CCCNCCCNC4CCCCC4)n3)nc3ccccc23)CC1)C(=O)O (centres unmarked) [Compound 80] |  | 0.1 to 1 µM |  | 
38 | c1cnc2nc(NCc3nnn(CCCNCCCNC4CCCCC4)n3)nc(NC3CCNCC3)c2c1 [Compound 53] |  | 0.1 to 1 µM |  | 
39 | N[C@@H](CCC(=O)N1CCC(Nc2nc(NCc3noc(CCCNCCCNC4CCCCC4)n3)nc3ccccc23)CC1)C(=O)O [Compound 33] | 0.05 to 0.15 µM | 0.05 to 0.1 µM |  | 
40 | Cc1cc(NC2CCN(C(=O)CCNCC(=O)O)CC2)nc(NCc2cc(CCCNCCCNC3CCCCC3)on2)n1 [Compound 39] | < 0.05 µM | 0.05 to 0.1 µM |  | 
41 | CCc1cc(NC2CCNCC2)nc(NCc2nnc(CCCNCCCNC3CCCCC3)[nH]2)n1 [Compound 27] |  | 0.05 to 0.1 µM |  | 
42 | Cc1cc(NC2CCN(C(=O)CCNCC(=O)O)CC2)nc(NCc2nc(CCCNCCCNC3CCCCC3)cs2)n1 [Compound 41] | < 0.05 µM | 0.1 to 1 µM |  | 
43 | N[C@@H](CCC(=O)N1CCC(Nc2nc(NCc3nnc(CCCNCCCNC4CCCCC4)o3)nc3ccccc23)CC1)C(=O)O [Compound 34] | 0.05 to 0.15 µM | 0.05 to 0.1 µM |  | 
44 | O=C(O)[C@H]1CCCN1CCC(=O)N1CCC(Nc2nc(NCc3nnn(CCCNCCCNC4CCCCC4)n3)nc3ccccc23)CC1 [Compound 78] |  | 0.05 to 0.1 µM |  | 
45 | N[C@@H](CCC(=O)NCCN1CCC(Nc2nc(NCc3coc(CCCNCCCNC4CCCCC4)n3)nc3ccccc23)CC1)C(=O)NCCP(=O)(O)O [Compound 48] | < 0.05 µM | 0.05 to 0.1 µM |  | 
46 | CCc1cc(NC2CCN(C(=O)CC[C@H](N)C(=O)O)CC2)nc(NCc2nnc(CCCNCCCNC3CCCCC3)s2)n1 [Compound 69] |  | 0.1 to 1 µM |  | 
47 | O=C(O)[C@@H](O)CCC(=O)N1CCC(Nc2nc(NCc3nc(CCCNCCCNC4CCCCC4)co3)nc3ccccc23)CC1 [Compound 54] |  | 0.1 to 1 µM |  | 
48 | Cc1cc(NC2CCN(C(=O)CCCNCC(=O)O)CC2)nc(NCc2nnn(CCCNCCCNC3CCCCC3)n2)n1 [Compound 62] | < 0.05 µM | 0.05 to 0.1 µM |  | 

From patent publication US10882854B2, “Heterocyclic compounds and use thereof” (National Health Research Institutes, priority 2017, dated 2021)
